Data as given in patent publication US20250302720A1, “PEPTIDE-BASED HAIR TREATMENT” (Sederma, priority 2020, published 2025).
Residues, ends and D or L forms follow the SMILES beside them.

Key:
[1] = test system: white and non-white hairs of volunteers; assay: In-vivo non-white/white hair ratio by TrichoScan micro-photos; design: species or system human; conditions: lotion 90 ppm, 18 volunteers, temples, T 4 m
Procedure: (§1) The in-vivo tests were carried out by applying the hair lotion described above in point 1) in the Galenic part. This lotion comprises 90 ppm of the peptide of the invention. Four independent studies were conducted with a total of 84 volunteers (average age of the entire panel of selected volunteers was 42 years). All four studies were conducted over a wide range of geographical locations, times, seasons, application sites, phototypes and methods. The details are specified in the below table.
Only one study (at site 2) used this technology (a new tool for analyzing hair growth) which has the advantage of providing data on a very small area and seeing the hair individually. The scalp area is identified and shaved a few days before the photo, and this at different times. Widely used for the study of hair loss, with this technology, thanks to its high magnification, it is also possible to work on hair coloring. The TrichoScan® system includes an epiluminescence microcamera system.
2.4—Evaluation of the Number of White Hairs and Non-White Hairs The TrichoScan® software was used to determine the number of white hairs, the number of black hairs and the calculation of the black/white ratio. This ratio increases with the number of dark hairs when the treatment acts.

[2] = test system: reduced glutathione (GSH); assay: Reduced glutathione of the NHM (fluorescent probe); format: cell-based, human; conditions: 24 h, vs control
Procedure: NHM almost at confluence are brought into contact with the peptide according to the invention for 24 hours. After this contact, the cells are broken in an extraction buffer that preserves glutathione. The amount of GSH is determined by a specific fluorescent probe.

catalase = assay: Catalase activity of the NHM (resorufin reagent); format: cell-based, human; conditions: 24 h, vs control
Procedure: NHM almost at confluence are brought into contact with the peptide according to the invention for 24 hours. At the end of this contact, the cells are crushed. The catalase activity extracted from these cells is measured using resorufin reagent. The latter combines with the H2O2 remaining in the reaction well after the action of cellular catalase. A protein assay using bicinchoninic acid (BCA) method is used to estimate the cell quantity to homogenize the obtained data.

[3] = test system: grey/white hair of volunteers; assay: In-vivo grey/white hair density in volunteers (standardized photos, Image J image analysis); design: species or system human
Procedure: as §1
All the studies used a complex photographic system, with the camera mounted on a bench to ensure perfect repositioning of the volunteer's head at all study times. For each volunteer, profile photos, and in some studies also of the back or the top of the head, were taken in cross-polarized mode to eliminate any parasitic shine so as not to interfere with the image analysis photo treatment. These photos are used to both get an overview of the grey hair intensity and, by their quality, to work on a smaller isolated area.
The evaluation of the area occupied by grey/white hair was made in the photos with the NIH-USA™ Image J software by targeting the areas of interest.
Commonly, a short hair size (2 cm for example) was requested, except for test site 2, and that this size be the same for a volunteer at different measurement times to facilitate before-after comparisons.
Also, in common, each original photo, in color, was converted to an image with grey levels, the same level filter (thresholding operation) was applied before and after to the photos of the same volunteer. Non-black hair where thus selected. At the end, a binarization operation (black/white) was carried out to separate the non-black hairs (grey and white) from the blacks and to quantify the former.

[4] = test system: Normal human keratinocytes (NHK); assay: Microbead (melanosome mimic) phagocytosis by keratinocytes; format: cell-based; conditions: 24 hours then microbeads 3 hours, vs control
Procedure: Normal human keratinocytes (NHK) are seeded and cultured until a mat of confluent cells is obtained. The cells are brought into contact with the peptide according to the invention for 24 hours and a solution of fluorescent microbeads mimicking the melanosomes of the melanocyte is added for 3 hours. The beads are phagocytosed (ingested) by the keratinocytes and quantified, after rinsing, by image analysis. In parallel, the cell nuclei are counterstained using the Hoescht33258 fluorescent dye to estimate the cell quantity and to harmonize the data.

[5] = test system: hair follicles (bulb) from a scalp plasty; assay: Melanin production in the bulb of isolated hair follicles kept in survival for 8 days; format: cell-based, human; conditions: 10 ppm
Procedure: Follicles comprising their bulb with little pigment and isolated from a scalp plasty (resulting from cosmetic surgery— donor, dark blond; person) are placed individually in the wells of a culture plate containing the culture medium and maintained for survival (37° C.; 5% CO2).
Twelve follicles are reserved for T0 to serve as a reference for visual estimation and quantification of pigmentation but also for subsequent labeling of MC1R and MITF by immunohistology (six follicles for each marker).
Twelve follicles are placed in contact with the peptide according to the invention at 10 ppm in its solvent and twelve others in contact with the solvent alone for 8 days (0.1% DMSO in culture medium). At 8 days, all the follicles are stopped and fixed, then sectioned (7 μm) and marked with alunated carmine and photographed under a microscope. Sections of 6 of them (for each group) are used for visual and quantitative assessment by image analysis of their pigmentation (with specific filter to measure melanin). Sections of the other 6 are used for MC1R and MITF scoring, which is to be assessed by visual estimation.

[6] = 7 volunteers, behind the head, T 3 m
[7] = 7 volunteers, behind the head, T 6 m (3 months after the last application)
[8] = 10 volunteers, top of the head, T 4 m
[9] = 10 volunteers, top of the head, T 8 m (4 months after the last application)
[10] = lotion 90 ppm, 5 ml/d, 17 volunteers, one side (profile), T 3 m
[11] = lotion 90 ppm, 5 ml/d, 21 volunteers, behind the head, T 3 m
[12] = lotion 90 ppm, 5 ml/d, 21 volunteers, one side (profile)/temple, T 3 m
[13] = lotion 90 ppm, 5 ml/d, 25 volunteers, one side (profile), T 3 m
[14] = lotion 90 ppm, 5 ml/d, site 2, 18 volunteers, top of the head, T 4 m
[15] = lotion 90 ppm, 5 ml/d, site 2, 19 volunteers, top of the head, T3 m
[16] = lotion 90 ppm, 17 volunteers, one side (profile), T 3 m
[17] = lotion 90 ppm, 21 volunteers, behind the head, T 3 m
[18] = lotion 90 ppm, 21 volunteers, one side (profile)/temple, T 3 m
[19] = lotion 90 ppm, 25 volunteers, one side (profile), T 3 m

Catalase activity, Variation (%) (catalase; 10 ppm, n = 3): +31%; p < 0.01
Catalase activity, Variation (%) (catalase; 12.5 ppm, n = 3): +37%; p < 0.01
Catalase activity, Variation (%) (catalase; 12.5 ppm, n = 3, listed as peptide according to the invention): +37%
SMILES: CCCCCCCCCCCCCCCC(=O)N1CCC[C@H]1C(=O)N1CCC[C@H]1C(=O)O [Pal-PP-OH, palmitoyl-prolyl-proline] (HELM PEPTIDE1{[CCCCCCCCCCCCCCCC(=O)[*:2]].P.P}$$$$V2.0)
non-white/white hair Ratio, Maximum (variation) [1]: +385%
non-white/white hair Ratio, Mean [1]: 2.56
non-white/white hair Ratio, respondents [1]: 72%
non-white/white hair Ratio, % Variation vs. T0 ([1]; listed as peptide according to the invention): approximately +27.4%
non-white/white hair Ratio, % Variation vs. T0 ([1]; listed as peptide of the invention): +27.4%
Reduced glutathione concentration, Variation (%) ([2]; 10 ppm, n = 6): +28%; p < 0.05
Reduced glutathione concentration, Variation (%) ([2]; 12.5 ppm, n = 6): +38%; p < 0.01
Reduced glutathione concentration, Variation (%) ([2]; 12.5 ppm, n = 6, listed as peptide of the invention): +38%
Grey hair density, Maximum [3, 6]: −70%
Grey hair density, Repondents [3, 6]: 100%
Grey hair density, Moyenne (%) ([3]; 7 volunteers, behind the head, T 3 m (end of 3 months of application)): 3.14%
Grey hair density, Maximum [3, 7]: −60%
Grey hair density, Moyenne (%) [3, 7]: 3.00%
Grey hair density, Repondents [3, 7]: 100%
Grey hair density, Maximum [3, 8]: −22%
Grey hair density, Repondents [3, 8]: 100%
Grey hair density, Moyenne (%) ([3]; 10 volunteers, top of the head, T 4 m (end of 4 months of application)): 39.36%
Grey hair density, Variation vs. T0 ([3]; 10 volunteers, top of the head, T 4 m (end of 4 months of application), listed as peptide according to the invention): −15.04%
Grey hair density, Maximum [3, 9]: −45%
Grey hair density, Moyenne (%) [3, 9]: 36.04%
Grey hair density, Repondents [3, 9]: 80%
Grey hair density, Variation vs. T0 ([3]; 10 volunteers, top of the head, T 8 m (4 months after the last application), listed as peptide according to the invention): −22.20%
decrease of the grey hair density on the temples, on average (3 tests) ([3]; after 3 months of application): 32.4%
decrease of the grey hair density ([3]; after 3 months of application, back of the head, 21 volunteers): 31.9%
decrease of the grey hair density ([3]; after 3 months of application, temples, 21 volunteers): 37.5%
Grey hair density, Mean (%) [3, 10]: 7.50%
Grey hair density, Variation vs. T0 [3, 10]: −21.1%
Grey hair density, Mean (%) [3, 11]: 3.28%
Grey hair density, Variation vs. T0 [3, 11]: −31.9%
Grey hair density, Mean (%) [3, 12]: 4.78%
Grey hair density, Variation vs. T0 [3, 12]: −37.5%
Grey hair density, Mean (%) [3, 13]: 1.90%
Grey hair density, Variation vs. T0 [3, 13]: −38.7%
Grey hair density, Mean (%) [3, 14]: 39.78%
Grey hair density, Variation vs. T0 [3, 14]: −10.90%
Grey hair density, Mean (%) [3, 15]: 40.22%
Grey hair density, Variation vs. T0 [3, 15]: −8.80%
Grey hair density, Maximum variation [3, 16]: −67%
Grey hair density, respondents [3, 16]: 76%
Grey hair density, Maximum variation [3, 17]: −70%
Grey hair density, respondents [3, 17]: 95%
Grey hair density, Maximum variation [3, 18]: −70%
Grey hair density, respondents [3, 18]: 100%
Grey hair density, Maximum variation [3, 19]: −86%
Grey hair density, respondents [3, 19]: 68%
Grey hair density, respondents, mean of 3 studies ([3]; lotion 90 ppm, column Mean T 3 m vs. T0, one side (profile)): 81%
Grey hair density, Variation vs. T0, Mean T 3 m vs. T0 of 3 studies ([3]; lotion 90 ppm, mean of the 3 studies (21, 25, 17 volunteers), one side (profile), T 3 m): −32.43%
Grey hair density, Maximum ([3]; lotion 90 ppm, site 2, 18 volunteers, top of the head, T 4 m): −23%
Grey hair density, respondents ([3]; lotion 90 ppm, site 2, 18 volunteers, top of the head, T 4 m, listed as peptide according to the invention): 84%
Grey hair density, Maximum ([3]; lotion 90 ppm, site 2, 19 volunteers, top of the head, T3 m): −26%
Grey hair density, respondents ([3]; lotion 90 ppm, site 2, 19 volunteers, top of the head, T3 m, listed as peptide according to the invention): 79%
decrease in grey/white hair ([3]; top of the head, T 3 months): 8.8%
decrease in grey/white hair ([3]; top of the head, after 4 months of use): 10.9%
Number of microbeads per image analysis, Variation (%) ([4]; 5 ppm, n = 3): +50%; p < 0.05
Number of microbeads per image analysis, Variation (%) ([4]; 10 ppm, n = 3): +283%; p < 0.01
Number of microbeads per image analysis, Variation (%) ([4]; 10 ppm, n = 3, listed as peptide according to the invention): +283%
dark pixels corresponding to the deposition of melanin, vs control follicles ([5]; 6 follicles): 11.6 times
Melanin, Quantification by image analysis; % area occupied by black pixels ([5]; follicle bulb, vs control, n = 6 follicles): ×11.6; p < 0.01
